From ChEMBL document CHEMBL1201862, “PubChem BioAssay data set” (2004)
The source made the active and inactive calls.

How the values were obtained:
Format in all cases: functional
[1] = target: ALK tyrosine kinase receptor (Homo sapiens, UniProt Q9UM73);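 further: ALK tested as one member of a kinase panel screen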
[2] = target: MAP kinase-interacting serine/threonine-protein kinase 2 (Homo sapiens, UniProt Q9HBH9)
[3] = target: STE20-like serine/threonine-protein kinase (Homo sapiens, UniProt Q9H2G2)
[4] = target: MAP kinase-activated protein kinase 2 (Homo sapiens, UniProt P49137);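 further: measured as one member of a kinome-wide kinase panel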
[5] = target: Dual specificity protein kinase CLK4 (Homo sapiens, UniProt Q9HAZ1)
[6] = target: Protein kinase C delta type (Homo sapiens, UniProt Q05655)
[7] = target: Mitogen-activated protein kinase kinase kinase kinase 5 (Homo sapiens, UniProt Q9Y4K4);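 further: measured as one member of a kinome-spanning kinase panel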
[8] = target: Glycogen synthase kinase-3 alpha (Homo sapiens, UniProt P49840);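 further: GSK3A result taken from a broad kinome-wide kinase panel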
[9] = target: Serine/threonine-protein kinase 3 (Homo sapiens, UniProt Q13188);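 further: measured as one member of a kinome-wide kinase panel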
[10] = target: Serine/threonine-protein kinase TAO1 (Homo sapiens, UniProt Q7L7X3)
[11] = target: Tyrosine-protein kinase Lck (Homo sapiens, UniProt P06239);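 further: lck was assayed as one member of a kinase panel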
[12] = target: Calcium/calmodulin-dependent protein kinase type II subunit delta (Homo sapiens, UniProt Q13557)
[13] = target: Testis-specific serine/threonine-protein kinase 2 (Homo sapiens, UniProt Q96PF2);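 further: part of the Navigating the Kinome panel, target entry STK22B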
[14] = target: Tyrosine-protein kinase JAK3 (Homo sapiens, UniProt P52333)
[15] = target: Tyrosine-protein kinase ITK/TSK (Homo sapiens, UniProt Q08881);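 further: affinity for ITK measured as one member of a broad kinase panel profiling binding across the kinome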
[16] = target: Maternal embryonic leucine zipper kinase (Homo sapiens, UniProt Q14680)
[17] = target: Proto-oncogene tyrosine-protein kinase Src (Homo sapiens, UniProt P12931);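 further: SRC entry within a kinome-wide kinase profiling panel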
Sequence of Proto-oncogene tyrosine-protein kinase Src (P12931 2-536 limits assumed): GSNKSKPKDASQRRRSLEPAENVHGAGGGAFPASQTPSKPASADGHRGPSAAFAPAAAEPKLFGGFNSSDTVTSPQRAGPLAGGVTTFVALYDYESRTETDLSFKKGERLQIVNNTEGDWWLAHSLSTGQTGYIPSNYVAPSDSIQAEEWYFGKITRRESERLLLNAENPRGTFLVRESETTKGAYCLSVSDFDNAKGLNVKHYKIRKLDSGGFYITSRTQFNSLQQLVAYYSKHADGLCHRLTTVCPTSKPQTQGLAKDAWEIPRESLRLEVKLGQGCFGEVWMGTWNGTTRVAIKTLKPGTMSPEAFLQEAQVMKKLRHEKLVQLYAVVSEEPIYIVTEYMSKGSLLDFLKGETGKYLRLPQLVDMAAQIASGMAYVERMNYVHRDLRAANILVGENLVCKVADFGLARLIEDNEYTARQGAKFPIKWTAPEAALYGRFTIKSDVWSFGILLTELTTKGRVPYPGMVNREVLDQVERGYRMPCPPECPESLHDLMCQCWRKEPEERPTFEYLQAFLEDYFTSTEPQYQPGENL

[18] = target: Aurora kinase B (Homo sapiens, UniProt Q96GD4)
[19] = target: Homeodomain-interacting protein kinase 4 (Homo sapiens, UniProt Q8NE63)
[20] = target: Tyrosine-protein kinase Fyn (Homo sapiens, UniProt P06241)
[21] = target: Glycogen synthase kinase-3 beta (Homo sapiens, UniProt P49841);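 further: value comes from a broad kinome profiling panel, with GSK3B as the panel member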
Sequence of Glycogen synthase kinase-3 beta (P49841 whole entry): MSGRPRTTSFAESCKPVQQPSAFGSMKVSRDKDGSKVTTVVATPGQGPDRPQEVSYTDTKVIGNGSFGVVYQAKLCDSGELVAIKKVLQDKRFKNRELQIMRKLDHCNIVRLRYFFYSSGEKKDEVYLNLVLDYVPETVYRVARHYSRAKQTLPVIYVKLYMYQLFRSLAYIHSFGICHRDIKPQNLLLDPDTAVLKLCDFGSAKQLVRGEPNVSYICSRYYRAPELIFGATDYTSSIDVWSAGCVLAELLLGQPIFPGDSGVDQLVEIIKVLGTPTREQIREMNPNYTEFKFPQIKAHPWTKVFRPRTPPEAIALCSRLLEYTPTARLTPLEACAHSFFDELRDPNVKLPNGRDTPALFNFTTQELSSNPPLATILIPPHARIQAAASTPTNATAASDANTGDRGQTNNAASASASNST

[22] = target: Ribosomal protein S6 kinase beta-1 (Homo sapiens, UniProt P23443);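 further: measured as one member of a kinome-wide profiling panel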
[23] = target: Dual specificity protein kinase CLK2 (Homo sapiens, UniProt P49760)
Sequence of Dual specificity protein kinase CLK2 (P49760 whole entry): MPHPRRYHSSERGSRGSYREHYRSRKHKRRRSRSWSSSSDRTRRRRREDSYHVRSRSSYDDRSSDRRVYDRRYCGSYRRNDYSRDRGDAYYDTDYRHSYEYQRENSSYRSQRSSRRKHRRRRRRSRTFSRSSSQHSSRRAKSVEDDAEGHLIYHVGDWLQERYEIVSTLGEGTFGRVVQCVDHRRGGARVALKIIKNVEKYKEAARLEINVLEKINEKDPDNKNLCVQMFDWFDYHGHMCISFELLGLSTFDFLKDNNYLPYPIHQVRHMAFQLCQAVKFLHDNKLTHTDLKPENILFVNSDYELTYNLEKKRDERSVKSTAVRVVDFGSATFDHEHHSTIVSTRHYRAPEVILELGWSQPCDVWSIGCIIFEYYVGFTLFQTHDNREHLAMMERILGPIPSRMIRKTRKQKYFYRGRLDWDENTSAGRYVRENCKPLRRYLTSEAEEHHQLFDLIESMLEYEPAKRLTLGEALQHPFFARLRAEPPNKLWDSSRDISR

[24] = target: 5'-AMP-activated protein kinase catalytic subunit alpha-1 (Homo sapiens, UniProt Q13131)
[25] = target: Vascular endothelial growth factor receptor 1 (Homo sapiens, UniProt P17948);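 further: measured within a kinome-wide profiling panel, FLT1 as the panel member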
[26] = target: Insulin receptor (Homo sapiens, UniProt P06213);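 further: insulin receptor kinase tested as one member of a kinome-wide kinase panel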
[27] = target: Hepatocyte growth factor receptor (Homo sapiens, UniProt P08581);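 further: kinase panel profiling across the kinome, with MET as the panel member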
[28] = target: Protein kinase C gamma type (Homo sapiens, UniProt P05129)
[29] = target: Cyclin-dependent kinase 5 (Homo sapiens, UniProt Q00535);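 further: CDK5 measured as one member of a kinase profiling panel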
[30] = target: High affinity nerve growth factor receptor (Homo sapiens, UniProt P04629);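 further: NTRK1 tested as one member of a kinome-wide profiling panel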
[31] = target: Cyclin-dependent kinase 9 (Homo sapiens, UniProt P50750);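 further: value from the CDK9 entry of a kinome-spanning kinase panel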
[32] = target: Receptor tyrosine-protein kinase erbB-4 (Homo sapiens, UniProt Q15303);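 further: ERBB4 member of a kinome-wide kinase profiling panel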
Sequence of Receptor tyrosine-protein kinase erbB-4 (Q15303 whole entry): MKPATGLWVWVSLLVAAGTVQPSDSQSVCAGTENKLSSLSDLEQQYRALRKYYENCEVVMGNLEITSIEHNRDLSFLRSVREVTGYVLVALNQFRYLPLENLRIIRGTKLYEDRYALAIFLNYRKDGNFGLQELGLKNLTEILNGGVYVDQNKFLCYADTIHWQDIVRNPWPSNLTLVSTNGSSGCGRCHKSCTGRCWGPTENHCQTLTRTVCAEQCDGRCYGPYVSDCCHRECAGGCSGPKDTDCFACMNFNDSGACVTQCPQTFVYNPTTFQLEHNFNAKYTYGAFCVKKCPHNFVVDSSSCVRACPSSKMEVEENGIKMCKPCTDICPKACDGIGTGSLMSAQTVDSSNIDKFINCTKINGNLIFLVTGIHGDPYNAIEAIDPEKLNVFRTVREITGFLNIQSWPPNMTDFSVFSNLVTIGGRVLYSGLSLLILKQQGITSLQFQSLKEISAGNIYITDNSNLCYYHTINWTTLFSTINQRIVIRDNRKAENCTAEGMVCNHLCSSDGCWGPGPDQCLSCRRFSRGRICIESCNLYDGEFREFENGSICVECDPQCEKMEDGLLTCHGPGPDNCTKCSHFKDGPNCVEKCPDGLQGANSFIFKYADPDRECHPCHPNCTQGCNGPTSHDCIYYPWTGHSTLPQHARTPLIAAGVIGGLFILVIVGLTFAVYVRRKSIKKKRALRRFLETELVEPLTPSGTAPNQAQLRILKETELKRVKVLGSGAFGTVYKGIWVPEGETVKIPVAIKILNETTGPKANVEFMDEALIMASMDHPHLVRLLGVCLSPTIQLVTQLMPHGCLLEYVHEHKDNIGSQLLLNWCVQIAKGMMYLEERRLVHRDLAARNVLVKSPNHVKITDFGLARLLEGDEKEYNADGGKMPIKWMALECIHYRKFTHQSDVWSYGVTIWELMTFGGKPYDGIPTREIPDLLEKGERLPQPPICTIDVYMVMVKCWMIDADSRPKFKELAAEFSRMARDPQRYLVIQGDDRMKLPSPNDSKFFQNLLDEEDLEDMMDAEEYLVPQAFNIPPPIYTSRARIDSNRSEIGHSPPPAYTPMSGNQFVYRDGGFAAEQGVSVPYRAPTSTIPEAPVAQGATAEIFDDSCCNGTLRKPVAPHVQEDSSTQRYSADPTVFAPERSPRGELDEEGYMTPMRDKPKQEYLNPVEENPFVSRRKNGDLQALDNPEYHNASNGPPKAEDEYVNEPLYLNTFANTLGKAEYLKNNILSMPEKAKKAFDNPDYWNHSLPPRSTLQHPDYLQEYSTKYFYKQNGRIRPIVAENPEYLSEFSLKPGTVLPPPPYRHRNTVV

[33] = target: Interleukin-1 receptor-associated kinase 1 (Homo sapiens, UniProt P51617);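 further: IRAK1 tested as one member of a kinome panel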
[34] = target: Lymphokine-activated killer T-cell-originated protein kinase (Homo sapiens, UniProt Q96KB5);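 further: value comes from a kinase panel screen in which TOPK was one of the panel members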
[35] = target: Cyclin-dependent kinase 7 (Homo sapiens, UniProt P50613);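 further: value comes from a kinome-wide kinase profiling panel in which CDK7 is one member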
[36] = target: Protein kinase C iota type (Homo sapiens, UniProt P41743);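 further: measured within a kinome-wide kinase panel, PRKCI as panel member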
[37] = target: Serine/threonine-protein kinase D3 (Homo sapiens, UniProt O94806);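 further: determined within a kinase panel screen, with PRKCN as the panel member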
Sequence of Serine/threonine-protein kinase D3 (O94806 whole entry): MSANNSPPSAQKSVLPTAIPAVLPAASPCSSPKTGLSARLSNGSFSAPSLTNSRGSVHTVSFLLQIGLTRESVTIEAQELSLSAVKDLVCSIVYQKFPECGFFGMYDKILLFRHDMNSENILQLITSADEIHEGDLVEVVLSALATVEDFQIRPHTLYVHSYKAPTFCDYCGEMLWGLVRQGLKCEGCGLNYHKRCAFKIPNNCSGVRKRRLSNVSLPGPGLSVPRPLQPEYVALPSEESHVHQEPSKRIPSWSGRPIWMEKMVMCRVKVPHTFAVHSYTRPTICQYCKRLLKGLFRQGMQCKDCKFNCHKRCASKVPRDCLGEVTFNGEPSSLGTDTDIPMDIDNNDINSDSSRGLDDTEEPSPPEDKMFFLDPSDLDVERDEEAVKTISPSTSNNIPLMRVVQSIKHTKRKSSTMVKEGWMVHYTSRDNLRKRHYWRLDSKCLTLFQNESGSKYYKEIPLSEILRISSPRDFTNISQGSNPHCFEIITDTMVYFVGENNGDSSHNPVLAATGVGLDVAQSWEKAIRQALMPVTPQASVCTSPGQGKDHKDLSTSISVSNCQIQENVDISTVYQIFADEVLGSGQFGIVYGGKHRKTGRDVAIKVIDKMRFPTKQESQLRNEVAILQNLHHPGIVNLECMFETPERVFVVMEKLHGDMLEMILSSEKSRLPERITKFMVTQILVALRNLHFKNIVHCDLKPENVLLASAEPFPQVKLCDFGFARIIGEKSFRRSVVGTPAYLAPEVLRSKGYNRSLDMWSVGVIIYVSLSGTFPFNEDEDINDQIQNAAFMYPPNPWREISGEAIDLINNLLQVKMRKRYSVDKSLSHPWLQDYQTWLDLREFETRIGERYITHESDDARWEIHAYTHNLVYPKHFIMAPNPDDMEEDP

[38] = target: Serine/threonine-protein kinase PAK 4 (Homo sapiens, UniProt O96013);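 further: value obtained within a kinome profiling panel in which PAK4 was one of the panel members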
[39] = target: RAC-gamma serine/threonine-protein kinase (Homo sapiens, UniProt Q9Y243)
[40] = target: RAC-alpha serine/threonine-protein kinase (Homo sapiens, UniProt P31749);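 further: AKT1 affinity measured as one member of a kinome-wide kinase profiling panel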
[41] = target: Serine/threonine-protein kinase D2 (Homo sapiens, UniProt Q9BZL6);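 further: measured against PRKD2 as one member of a kinome-wide kinase profiling panel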
Sequence of Serine/threonine-protein kinase D2 (Q9BZL6 whole entry): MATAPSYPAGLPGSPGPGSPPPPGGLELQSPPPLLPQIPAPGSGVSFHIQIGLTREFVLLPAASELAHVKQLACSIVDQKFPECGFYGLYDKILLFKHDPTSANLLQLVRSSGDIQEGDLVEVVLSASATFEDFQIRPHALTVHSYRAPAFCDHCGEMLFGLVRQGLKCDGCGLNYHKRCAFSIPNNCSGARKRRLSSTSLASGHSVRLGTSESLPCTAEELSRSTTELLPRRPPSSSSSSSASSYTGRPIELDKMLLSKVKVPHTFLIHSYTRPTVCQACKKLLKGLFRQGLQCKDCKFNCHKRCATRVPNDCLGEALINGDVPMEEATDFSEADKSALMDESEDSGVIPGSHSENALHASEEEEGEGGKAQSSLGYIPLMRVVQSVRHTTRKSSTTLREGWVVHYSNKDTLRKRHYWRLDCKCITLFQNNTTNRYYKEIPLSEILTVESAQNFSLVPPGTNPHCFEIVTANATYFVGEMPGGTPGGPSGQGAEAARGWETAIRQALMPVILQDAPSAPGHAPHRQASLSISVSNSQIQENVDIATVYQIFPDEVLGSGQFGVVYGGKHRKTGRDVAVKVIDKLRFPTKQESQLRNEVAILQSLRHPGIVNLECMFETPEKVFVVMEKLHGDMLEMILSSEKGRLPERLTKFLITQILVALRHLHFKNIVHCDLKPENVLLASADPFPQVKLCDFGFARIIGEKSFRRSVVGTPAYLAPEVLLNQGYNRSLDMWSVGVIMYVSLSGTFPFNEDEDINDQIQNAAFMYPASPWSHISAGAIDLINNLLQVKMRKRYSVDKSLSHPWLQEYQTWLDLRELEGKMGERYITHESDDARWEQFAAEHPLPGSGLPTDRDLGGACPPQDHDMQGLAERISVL

[42] = target: Receptor-type tyrosine-protein kinase FLT3 (Homo sapiens, UniProt P36888);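 further: FLT3 was tested as one member of a kinome-wide kinase panel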
[43] = target: 3-phosphoinositide-dependent protein kinase 1 (Homo sapiens, UniProt O15530);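 further: value comes from the Navigating the Kinome panel, PDPK1 member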
[44] = target: Serine/threonine-protein kinase PLK4 (Homo sapiens, UniProt O00444);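 further: PLK4 measured as one member of a kinome-wide kinase profiling panel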
[45] = target: Protein-tyrosine kinase 6 (Homo sapiens, UniProt Q13882)
[46] = target: Ribosomal protein S6 kinase alpha-3 (Homo sapiens, UniProt P51812);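 further: measured within a kinome-wide profiling panel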
[47] = target: Mast/stem cell growth factor receptor Kit (Homo sapiens, UniProt P10721);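 further: KIT entry within a kinase panel assay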

Sequence of MAP kinase-interacting serine/threonine-protein kinase 2 (Q9HBH9 whole entry): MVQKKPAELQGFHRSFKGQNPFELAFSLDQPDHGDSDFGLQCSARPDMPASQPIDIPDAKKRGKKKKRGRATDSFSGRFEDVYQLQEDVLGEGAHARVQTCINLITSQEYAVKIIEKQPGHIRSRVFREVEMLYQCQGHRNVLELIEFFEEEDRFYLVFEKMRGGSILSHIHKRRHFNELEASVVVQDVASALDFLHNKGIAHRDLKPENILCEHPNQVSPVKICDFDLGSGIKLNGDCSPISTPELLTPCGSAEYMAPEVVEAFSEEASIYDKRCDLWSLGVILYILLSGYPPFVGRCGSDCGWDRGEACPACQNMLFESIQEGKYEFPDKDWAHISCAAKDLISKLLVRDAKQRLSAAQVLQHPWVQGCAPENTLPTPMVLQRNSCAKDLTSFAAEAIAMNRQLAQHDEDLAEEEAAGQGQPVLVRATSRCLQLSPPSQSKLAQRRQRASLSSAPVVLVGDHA

Q: NC1CCCCC1Nc1nccc(-c2c[nH]c3ncccc23)n1 (configuration not stated) was tested. Which Ki [1] did it give?
A: > 1260 nM (inactive)

Q: And the Ki [2]?
A: 126 nM (active)

Q: And the Ki [3]?
A: 316 nM (active)

Q: And the Ki [4]?
A: > 7940 nM (inactive)

Q: What about the Ki [5] of the same compound?
A: 6.31 nM (active)

Q: And the Ki [6]?
A: 200 nM (active)

Q: And the Ki [7]?
A: 251 nM (active)

Q: And the Ki [8]?
A: 158 nM (active)

Q: And the Ki [9]?
A: 251 nM (active)

Q: And the Ki [10]?
A: 3980 nM (active)

Q: What about the Ki [11] of the same compound?
A: > 2510 nM (inactive)

Q: And the Ki [12]?
A: 39.8 nM (active)

Q: What about the Ki [13] of the same compound?
A: 100 nM (active)

Q: And the Ki [14]?
A: 1260 nM (active)

Q: And the Ki [15]?
A: > 1580 nM (inactive)

Q: What about the Ki [16] of the same compound?
A: 100 nM (active)

Q: And the Ki [17]?
A: > 2000 nM (inactive)

Q: And the Ki [18]?
A: 1260 nM (active)

Q: What about the Ki [19] of the same compound?
A: 1580 nM (active)

Q: And the Ki [20]?
A: > 794 nM (inactive)

Q: And the Ki [21]?
A: 200 nM (active)

Q: And the Ki [22]?
A: 501 nM (active)

Q: What about the Ki [23] of the same compound?
A: 39.8 nM (active)

Q: And the Ki [24]?
A: 794 nM (active)

Q: And the Ki [25]?
A: > 398 nM (inactive)

Q: And the Ki [26]?
A: > 5010 nM (inactive)

Q: What about the Ki [27] of the same compound?
A: > 3160 nM (inactive)

Q: What about the Ki [28] of the same compound?
A: 251 nM (active)

Q: And the Ki [29]?
A: 50.1 nM (active)

Q: And the Ki [30]?
A: 631 nM (active)

Q: What about the Ki [31] of the same compound?
A: 31.6 nM (active)

Q: And the Ki [32]?
A: > 3980 nM (inactive)

Q: What about the Ki [33] of the same compound?
A: 39.8 nM (active)

Q: And the Ki [34]?
A: 631 nM (active)

Q: What about the Ki [35] of the same compound?
A: 6.31 nM (active)

Q: What about the Ki [36] of the same compound?
A: 200 nM (active)

Q: What about the Ki [37] of the same compound?
A: 79.4 nM (active)

Q: And the Ki [38]?
A: 100 nM (active)

Q: What about the Ki [39] of the same compound?
A: 501 nM (active)

Q: And the Ki [40]?
A: 631 nM (active)

Q: And the Ki [41]?
A: 501 nM (active)

Q: And the Ki [42]?
A: 316 nM (active)

Q: And the Ki [43]?
A: 316 nM (active)

Q: What about the Ki [44] of the same compound?
A: 3160 nM (active)

Q: What about the Ki [45] of the same compound?
A: > 2510 nM (inactive)

Q: What about the Ki [46] of the same compound?
A: 100 nM (active)

Q: And the Ki [47]?
A: > 1260 nM (inactive)
